The text below walks through data of patent EP3943081A1, “OPTIC NEUROPATHY TREATMENT AND REDUCTION OF STEROID- INDUCED OXIDATIVE STRESS WITH STABILIZED POLYUNSATURATED SUBSTANCES” (Retrotope, Inc., priority 2014, dated 2015).

Each structure is given as a SMILES string.

Series [1] has as its system Q-less (coq2, coq3, and coq5) yeast mutants. The conditions noted are these: cited from earlier work; for sensitivity of Q-less yeast to treatment: compared with the wild-type parental strain.
Series [2] concerns wild-type (the parental genetic background is strain W303-1B) cells. Conditions: following a four hour treatment; 240 min; cited from earlier work.
In series [3] the test system is Dhcr7-deficient Neuro2a neuroblastoma cells. Briefly: Oxysterol levels in Dhcr7-deficient Neuro2a neuroblastoma cells treated with fatty acid. The series is classed as cell-based. The conditions noted are these: for levels of oxysterols associated with free radical induced oxidation: 20 micromolar, Dhcr7 expression depleted by RNA interference, 7-DHC accumulates. The method, then:
Dhcr7-deficient Neuro2a neuroblastoma cells were treated with D2-linoleic acid, and non-deuterated linoleic acid ("Lin") was used in a control experiment. The level of Dhcr7 gene expression was depleted by RNA interference, leading to accumulation of 7-DHC in the cells. 7-DHC is 1-2 orders of magnitude more oxidizeable than linoleic acid, and so can easily initiate lipid peroxidation (See Yin et al., "Free Radical Lipid Peroxidation: Mechanisms and Analysis," Chem Rev. (2011), 111(10), 5944-5972).

As to `CCCCCCCC/C=C\CCCCCCCC(=O)O` [oleic acid], in series [1], the “sensitivity of Q-less yeast to treatment” value is recorded as “behave the same as the wild-type parental strain”.

Take `CC/C=C\C/C=C\C/C=C\CCCCCCCC(=O)O` [linolenic acid, cis,cis,cis-9,12,15-Octadecatrienoic acid]: the “viable Q-less yeast mutants” value in series [1] (following a four hour treatment, 240 min) was “Less than 1%”. The viable wild-type cells in series [2] is 70%.

Regarding `[2H]C([2H])(/C=C\CCCCC)/C=C\CCCCCCCC(=O)O` [D2-Lin, 11,11-Dideutero-cis,cis-9,12-Octadecadienoic acid], the oxidative stress result in series [3] (20 micromolar (same concentration as Lin), judged by oxysterol levels) was “did not induce oxidative stress”. The “levels of oxysterols associated with free radical induced oxidation” value in series [3] is on record as “low levels”.

Take `CCCCC/C=C\C/C=C\CCCCCCCC(=O)O` [Lin, cis, cis-9,12-Octadecadienoic acid]: the “levels of oxysterols associated with free radical induced oxidation” value in series [3] was “substantially increased”.

Consider `CCCCC/C=C\C/C=C\C/C=C\C/C=C\CCCC(=O)O` [arachidonic acid], for which the “sensitivity of Q-less yeast to treatment” value in series [1] is “hypersensitive”.
